Results from publication PMC5734728, “The JAK2/STAT3 inhibitor pacritinib effectively inhibits patient-derived GBM brain tumor initiating cells in vitro and when used in combination with temozolomide increases survival in an orthotopic xenograft model” (PLoS ONE, 2017).

Experiments:
[1] = system: patient-derived GBM BTIC cultures; assay: neurosphere assay, all BTIC cultures tested; format: cell-based, human; conditions: 5 μM
[2] = system: BT147 orthotopic xenograft; assay: Kaplan-Meier survival, orthotopic BT147 xenograft; format: in vivo; conditions: BT147 xenografted mice
Method: For Kaplan-Meier survival studies, BTIC spheres from BT53 or BT147 were dissociated to a single-cell suspension. Mice were anaesthetized using 10 mg/kg ketamine/xylazine. Buprenorphine (0.05 mg/kg) was administered once pre-operatively and once post-operatively to minimize animal suffering. 5 x 10^4 cells were stereotactically implanted into the right striata of 8- to 10-week-old female severe combined immunodeficient (SCID) mice, as previously described and approved by the University of Calgary Health Sciences Animal Care Committee, accredited by CCAC. Mice were randomized to vehicle or treatment cohorts, with a minimum of 8 mice per group, one week after cell implantation. For BT147, vehicle (Ora-Plus; Galenova), pacritinib (100 mg/kg), TMZ (30 mg/kg), or a combination of pacritinib (100 mg/kg) and TMZ (30 mg/kg), were administered via oral gavage. Animals completed a five-week regimen of three weekly treatments for a total of 15 treatments. For BT53, 100 mg/kg of pacritinib was administered twice per day alone or in combination with 50 mg/kg TMZ once per day, for one week via oral gavage. Following this, mice received 100 mg/kg pacritinib twice per day in combination with 10 mg/kg TMZ once per day for two weeks. Mice were euthanized with a lethal dose of sodium pentobarbital at a pre-defined humane endpoint. Specific criteria for the endpoint included: 20% weight loss, lack of grooming, inactivity, hind limb paralysis, and/or inability to eat or drink. The body weights were closely monitored throughout the course of the experiment. […] The presence of tumor was confirmed in the mice via necropsy and cranial dissection.

Structure (SMILES): C1=C/COCc2cc(ccc2OCCN2CCCC2)Nc2nccc(n2)-c2cccc(c2)COC/1 [pacritinib]
- sphere formation [1]: completely inhibit sphere formation
- survival advantage, single agent ([2]; 100 mg/kg pacritinib, p < 0.4649 log-rank): no survival advantage
- median survival ([2]; pacritinib 100 mg/kg, TMZ 30 mg/kg, oral, thrice weekly for five weeks, control 52 days): 48 days
